Positions of bridges follow the written chain, without caps; N, C: chain ends. Non-standard residues stand in square brackets, D forms with d. Residues, ends and D or L forms follow the SMILES beside them. R8 = C=CCCCCCC[C@@](C)(N)C(=O)O; S5 = C=CCCC[C@](C)(N)C(=O)O
What was measured:
[1] = circular dichroism; details: 10 mM phosphate buffer; pH 7.4; ns °C; 100 uM
[2] = system: human red blood cells (RBCs); assay type: cell-based; details: red cells of human, 1 h, 50
Text: One of the key obstacles that have long impeded the use of AMPs in systemic infections such as sepsis is their tendency to lyse human cells, such as red blood cells (RBCs). Thus, it is critical to minimize hemolytic activity as much as possible to achieve a therapeutic window. […] Of note, in those circumstances where hydrocarbon staples increase hemolytic activity due to increasing hydrophobicity, the alkene moiety can be modified, e.g., by dihydroxylation, to install hydrophilic residues and potentially mitigate hemolysis.
Hemolytic Activity Assay For the determination of hemolytic activity, the following protocol was applied: human blood samples were centrifuged to isolate red blood cells (RBCs), which were then washed and suspended in phosphate-buffered saline to yield a 1% (v/v) suspension. This suspension was then added to serial dilutions of peptide stocks in water in clear round-bottom polypropylene 96-well plates and the plates incubated for 1 hour at 37° C. After incubation, the plates were centrifuged and the supernatant isolated to determine the amount of hemoglobin released using a spectrophotometer (570 nm). The minimum hemolytic concentration (MHC) was determined by assessing the peptide concentration at which there was less than 1% hemoglobin release.

[3] = system: E. coli; assay type: cell-based, Escherichia coli; details: Table 1; microbroth dilution, refined MHB, 20-24 hours at 37° C.
Method: Antimicrobial Activity Assay The following microbroth dilution protocol was adapted to determine the MIC of each peptide. First, Mueller-Hinton broth (MHB) was passed through an anion exchange column to remove polyanionic species and generate refined MHB. This refined broth was then used in the standard microbroth dilution protocol devised by Hancock et al. for 96 well plates. […] Briefly, bacterial cells were grown overnight in refined MHB at 37° C. and then diluted and allowed to grow again for several hours. Serial dilutions of peptide stocks in water (10 μl) were prepared using clear round-bottom polypropylene 96-well plates. Then 90 μl of bacteria in refined MHB was added to give a final inoculum of 5×10^5 CFU/ml. The plates were then covered with porous tape to reduce evaporation, and incubated for 20-24 hours at 37° C.

| SMILES | helicity [1] [%] | % Hemolysis at 50 μg/ml [2] [%] | Antimicrobial Activity NIC (μg/ml) E. coli [3] [µg/mL] |
| --- | --- | --- | --- |
| CC(C)C[C@H](NC(=O)CNC(=O)[C@H](C)NC(=O)[C@H](CCCNC(=N)N)NC(=O)[C@H](CO)NC(=O)[C@H](CO)NC(=O)[C@H](CCCNC(=N)N)NC(=O)[C@@H](N)[C@@H](C)O)C(=O)N[C@@H](CCC(N)=O)C(=O)N[C@@H](Cc1c[nH]c2ccccc12)C(=O)N1CCC[C@H]1C(=O)N[C@H](C(=O)NCC(=O)N[C@@H](CCCNC(=N)N)C(=O)N[C@H](C(=O)N[C@@H](Cc1c[nH]cn1)C(=O)N[C@@H](CCCNC(=N)N)C(=O)N[C@@H](CC(C)C)C(=O)N[C@@H](CC(C)C)C(=O)N[C@@H](CCCNC(=N)N)C(=O)N[C@@H](CCCCN)C(N)=O)C(C)C)C(C)C | 0 | – | – |
| CC(C)C[C@H](NC(=O)CNC(=O)[C@H](C)NC(=O)[C@H](CCCNC(=N)N)NC(=O)[C@H](CO)NC(=O)[C@H](CO)NC(=O)[C@H](CCCNC(=N)N)NC(=O)[C@@H](N)[C@@H](C)O)C(=O)N[C@@H](CCC(N)=O)C(=O)N[C@@H](Cc1c[nH]c2ccccc12)C(=O)N1CCC[C@H]1C(=O)N[C@H](C(=O)NCC(=O)N[C@@H](CCCNC(=N)N)C(=O)N[C@H](C(=O)N[C@@H](Cc1c[nH]cn1)C(=O)N[C@@]1(C)CCCC=CCCC[C@@](C)(C(N)=O)NC(=O)[C@H](CCCNC(=N)N)NC(=O)[C@H](CC(C)C)NC(=O)[C@H](CC(C)C)NC1=O)C(C)C)C(C)C [BFStap(i + 4)1] (H-TRSSRAGLQWPVGRVH[S5]LLR[S5]-NH2; staple 17-21; N-terminus and C-terminus assumed) | – | 2.2 | 50.0 |
| CC(C)C[C@H](NC(=O)CNC(=O)[C@H](C)NC(=O)[C@H](CCCNC(=N)N)NC(=O)[C@H](CO)NC(=O)[C@H](CO)NC(=O)[C@H](CCCNC(=N)N)NC(=O)[C@@H](N)[C@@H](C)O)C(=O)N[C@@H](CCC(N)=O)C(=O)N[C@@H](Cc1c[nH]c2ccccc12)C(=O)N1CCC[C@H]1C(=O)N[C@H](C(=O)NCC(=O)N[C@@H](CCCNC(=N)N)C(=O)N[C@H](C(=O)N[C@@]1(C)CCCC=CCCC[C@@](C)(C(=O)N[C@@H](CCCCN)C(N)=O)NC(=O)[C@H](CC(C)C)NC(=O)[C@H](CC(C)C)NC(=O)[C@H](CCCNC(=N)N)NC1=O)C(C)C)C(C)C [BFStap(i + 4)2] (H-TRSSRAGLQWPVGRV[S5]RLL[S5]K-NH2; staple 16-20) | 3.2 | 12.6 | – |
| CC(C)C[C@H](NC(=O)CNC(=O)[C@H](C)NC(=O)[C@H](CCCNC(=N)N)NC(=O)[C@H](CO)NC(=O)[C@H](CO)NC(=O)[C@H](CCCNC(=N)N)NC(=O)[C@@H](N)[C@@H](C)O)C(=O)N[C@@H](CCC(N)=O)C(=O)N[C@@H](Cc1c[nH]c2ccccc12)C(=O)N1CCC[C@H]1C(=O)N[C@H](C(=O)NCC(=O)N[C@@H](CCCNC(=N)N)C(=O)N[C@@]1(C)CCCC=CCCC[C@@](C)(C(=O)N[C@@H](CCCNC(=N)N)C(=O)N[C@@H](CCCCN)C(N)=O)NC(=O)[C@H](CC(C)C)NC(=O)[C@H](CCCNC(=N)N)NC(=O)[C@H](Cc2c[nH]cn2)NC1=O)C(C)C [BFStap(i + 4)3] (H-TRSSRAGLQWPVGR[S5]HRL[S5]RK-NH2; staple 15-19; N-terminus and C-terminus assumed) | 4.3 | 2.9 | 25.0 |
| CC(C)C[C@H](NC(=O)CNC(=O)[C@H](C)NC(=O)[C@H](CCCNC(=N)N)NC(=O)[C@H](CO)NC(=O)[C@H](CO)NC(=O)[C@H](CCCNC(=N)N)NC(=O)[C@@H](N)[C@@H](C)O)C(=O)N[C@@H](CCC(N)=O)C(=O)N[C@@H](Cc1c[nH]c2ccccc12)C(=O)N1CCC[C@H]1C(=O)N[C@H](C(=O)NCC(=O)N[C@@]1(C)CCCC=CCCC[C@@](C)(C(=O)N[C@@H](CC(C)C)C(=O)N[C@@H](CCCNC(=N)N)C(=O)N[C@@H](CCCCN)C(N)=O)NC(=O)[C@H](CCCNC(=N)N)NC(=O)[C@H](Cc2c[nH]cn2)NC(=O)[C@H](C(C)C)NC1=O)C(C)C [BFStap(i + 4)4] (H-TRSSRAGLQWPVG[S5]VHR[S5]LRK-NH2; staple 14-18; N-terminus and C-terminus assumed) | 6 | 2.9 | 29.2 |
| CC(C)C[C@H](NC(=O)CNC(=O)[C@H](C)NC(=O)[C@H](CCCNC(=N)N)NC(=O)[C@H](CO)NC(=O)[C@H](CO)NC(=O)[C@H](CCCNC(=N)N)NC(=O)[C@@H](N)[C@@H](C)O)C(=O)N[C@@H](CCC(N)=O)C(=O)N[C@@H](Cc1c[nH]c2ccccc12)C(=O)N1CCC[C@H]1C(=O)N[C@H](C(=O)N[C@@]1(C)CCCC=CCCC[C@@](C)(C(=O)N[C@@H](CC(C)C)C(=O)N[C@@H](CC(C)C)C(=O)N[C@@H](CCCNC(=N)N)C(=O)N[C@@H](CCCCN)C(N)=O)NC(=O)[C@H](Cc2c[nH]cn2)NC(=O)[C@H](C(C)C)NC(=O)[C@H](CCCNC(=N)N)NC1=O)C(C)C [BFStap(i + 4)5] (H-TRSSRAGLQWPV[S5]RVH[S5]LLRK-NH2; staple 13-17; N-terminus and C-terminus assumed) | 8.8 | 3.0 | 66.7 |
| CC(C)C[C@H](NC(=O)CNC(=O)[C@H](C)NC(=O)[C@H](CCCNC(=N)N)NC(=O)[C@H](CO)NC(=O)[C@H](CO)NC(=O)[C@H](CCCNC(=N)N)NC(=O)[C@@H](N)[C@@H](C)O)C(=O)N[C@@H](CCC(N)=O)C(=O)N[C@@H](Cc1c[nH]c2ccccc12)C(=O)N1CCC[C@H]1C(=O)N[C@@]1(C)CCCC=CCCC[C@@](C)(C(=O)N[C@@H](CCCNC(=N)N)C(=O)N[C@@H](CC(C)C)C(=O)N[C@@H](CC(C)C)C(=O)N[C@@H](CCCNC(=N)N)C(=O)N[C@@H](CCCCN)C(N)=O)NC(=O)[C@H](C(C)C)NC(=O)[C@H](CCCNC(=N)N)NC(=O)CNC1=O [BFStap(i + 4)6] (H-TRSSRAGLQWP[S5]GRV[S5]RLLRK-NH2; staple 12-16) | – | 10.0 | – |
| CC(C)C[C@H](NC(=O)CNC(=O)[C@H](C)NC(=O)[C@H](CCCNC(=N)N)NC(=O)[C@H](CO)NC(=O)[C@H](CO)NC(=O)[C@H](CCCNC(=N)N)NC(=O)[C@@H](N)[C@@H](C)O)C(=O)N[C@@H](CCC(N)=O)C(=O)N[C@@H](Cc1c[nH]c2ccccc12)C(=O)N1CCC[C@H]1C(=O)N[C@]1(C)CCCCCCC=CCCC[C@@](C)(C(=O)N[C@@H](CCCNC(=N)N)C(=O)N[C@@H](CCCCN)C(N)=O)NC(=O)[C@H](CC(C)C)NC(=O)[C@H](CCCNC(=N)N)NC(=O)[C@H](Cc2c[nH]cn2)NC(=O)[C@H](C(C)C)NC(=O)[C@H](CCCNC(=N)N)NC(=O)CNC1=O [BFStap(i + 7)3] (H-TRSSRAGLQWP[R8]GRVHRL[S5]RK-NH2; staple 12-19; N-terminus and C-terminus assumed) | – | 6.1 | 29.2 |
| CC(C)C[C@H](NC(=O)[C@H](CC(C)C)NC(=O)[C@H](CCCNC(=N)N)NC(=O)[C@H](Cc1c[nH]cn1)NC(=O)[C@]1(C)CCCC=CCCCCCC[C@@](C)(NC(=O)CNC(=O)[C@H](C)NC(=O)[C@H](CCCNC(=N)N)NC(=O)[C@H](CO)NC(=O)[C@H](CO)NC(=O)[C@H](CCCNC(=N)N)NC(=O)[C@@H](N)[C@@H](C)O)C(=O)N[C@@H](CCC(N)=O)C(=O)N[C@@H](Cc2c[nH]c3ccccc23)C(=O)N2CCC[C@H]2C(=O)N[C@@H](C(C)C)C(=O)NCC(=O)N[C@@H](CCCNC(=N)N)C(=O)N1)C(=O)N[C@@H](CCCNC(=N)N)C(=O)N[C@@H](CCCCN)C(N)=O [BFStap(i + 7)5] (H-TRSSRAG[R8]QWPVGR[S5]HRLLRK-NH2; staple 8-15; N-terminus and C-terminus assumed) | – | 6.8 | 52.1 |
| CC(C)C[C@@H]1NC(=O)CNC(=O)[C@H](C)NC(=O)[C@](C)(NC(=O)[C@H](CO)NC(=O)[C@H](CO)NC(=O)[C@H](CCCNC(=N)N)NC(=O)[C@@H](N)[C@@H](C)O)CCCCCCC=CCCC[C@@](C)(C(=O)NCC(=O)N[C@@H](CCCNC(=N)N)C(=O)N[C@H](C(=O)N[C@@H](Cc2c[nH]cn2)C(=O)N[C@@H](CCCNC(=N)N)C(=O)N[C@@H](CC(C)C)C(=O)N[C@@H](CC(C)C)C(=O)N[C@@H](CCCNC(=N)N)C(=O)N[C@@H](CCCCN)C(N)=O)C(C)C)NC(=O)[C@@H]2CCCN2C(=O)[C@H](Cc2c[nH]c3ccccc23)NC(=O)[C@H](CCC(N)=O)NC1=O [BFStap(i + 7)8] (H-TRSS[R8]AGLQWP[S5]GRVHRLLRK-NH2; staple 5-12) | 0 | 3.9 | – |
| CC(C)C[C@H](NC(=O)CNC(=O)[C@H](C)NC(=O)[C@H](CCCNC(=N)N)NC(=O)[C@H](CO)NC(=O)[C@H](CO)NC(=O)[C@H](CCCNC(=N)N)NC(=O)[C@@H](N)[C@@H](C)O)C(=O)N[C@@H](CCC(N)=O)C(=O)N[C@@H](Cc1c[nH]c2ccccc12)C(=O)N1CCC[C@H]1C(=O)N[C@H](C(=O)NCC(=O)N[C@@H](CCCNC(=N)N)C(=O)N[C@H](C(=O)N[C@@H](Cc1cnc[nH]1)C(=O)N[C@@H](CCCNC(=N)N)C(=O)N[C@@H](CC(C)C)C(=O)N[C@@H](CC(C)C)C(=O)N[C@@H](CCCNC(=N)N)C(=O)N[C@@H](CCCCN)C(=O)O)C(C)C)C(C)C [Buforin II(F10W), reference compound] | – | 2.7 | >800 |

Source: patent US12391733B2, “Stapled intracellular-targeting antimicrobial peptides to treat infection” (priority 2016, dated 2025)
